Laboratory results taken from publication PMC6287826, “Regulation of histone deacetylase 3 by metal cations and 10-hydroxy-2E-decenoic acid: Possible epigenetic mechanisms of queen-worker bee differentiation” (PLoS ONE, 2018).

Target: T1, histone deacetylase 3 (HDAC3) (Homo sapiens, UniProt O15379)
T1 construct: full length human HDAC3 (NP_003874.2) with a C-terminal FLAG tag, in complex with human NCOR2 amino acids 395–489 with an N-terminal 6xHis tag; with NCOR2 (SMRT) amino acids 395–489
Assay: Fluor de Lys fluorescent deacetylase assay, fractional activity vs [10-HDA]
Format: biochemical

T1 sequence (O15379 whole entry, the tested form may be a part): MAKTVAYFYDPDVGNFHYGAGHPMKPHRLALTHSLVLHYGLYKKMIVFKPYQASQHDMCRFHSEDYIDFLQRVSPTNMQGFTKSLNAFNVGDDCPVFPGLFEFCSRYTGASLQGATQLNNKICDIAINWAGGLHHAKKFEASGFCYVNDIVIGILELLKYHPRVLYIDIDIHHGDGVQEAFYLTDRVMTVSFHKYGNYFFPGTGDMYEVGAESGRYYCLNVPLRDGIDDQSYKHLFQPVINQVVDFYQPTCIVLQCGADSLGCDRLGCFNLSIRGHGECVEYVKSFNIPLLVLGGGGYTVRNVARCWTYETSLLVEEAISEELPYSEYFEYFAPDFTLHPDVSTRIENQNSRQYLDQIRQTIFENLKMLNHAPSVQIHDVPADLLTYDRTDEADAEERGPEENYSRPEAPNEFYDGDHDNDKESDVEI
T1 sequence (Q9Y618 395-489 partner): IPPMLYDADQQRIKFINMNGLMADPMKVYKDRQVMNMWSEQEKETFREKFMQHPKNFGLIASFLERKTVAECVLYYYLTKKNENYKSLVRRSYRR

## O=C(O)/C=C/CCCCCCCO [10-HDA, 10-hydroxy-2E-decenoic acid]
  Ki: 5.32 mM
